Data from paper PMC12203697, “Bioactive constituents from the edible seaweed Halymenia hawaiiana (Rhodophyta)” (Pharmaceutical Biology, 2025).
Values after ≈ are worked out from the molar mass of the structure shown. Where two headings read alike, the source gives them in different places.

Tests used:
[1] = system: A549 human lung carcinoma epithelial cells; test: SRB cytotoxicity assay, A549 cells; settings: for Selectivity Index (SI): A549 (cancerous) versus NIH/3T3 (non-cancerous), SRB 72 h; for IC50: Homo sapiens, A549, 72 h, read-out: IC50, cytotoxicity against A549 cells
Method: After incubation, cells were fixed with trichloroacetic acid (Cat. No. T4885, Sigma-Aldrich, USA), stained with SRB (Cat. No. S9012, Sigma-Aldrich, USA), and the absorbance was measured at 515 nm. Percent cell death was calculated using the following equation: % Cell death=(ODc−OD0)‐(ODs−OD0)/(ODc−OD0)×100
(§1) OD0 = Optical density of cells before treatment (baseline reading).
ODC = Optical density of untreated control cells after 72 h.
ODS = Optical density of cells treated with the test sample after 72 h.
Non-linear regression analysis was performed using GraphPad Prism to calculate the IC50 value. This value reflects the concentration needed to inhibit cell growth by 50%.
All data are presented as mean ± standard error of the mean (SEM) and were collected from three separate experiments. Statistical analyses were conducted using Student’s t-test or ANOVA, followed by Tukey’s multiple comparisons test. Significance is indicated by *p < 0.05, **p < 0.01, and ***p < 0.001.

S. aureus CART817 = test: Antibacterial MIC, broth microdilution with resazurin; type: cell-based; settings: Staphylococcus aureus; S. aureus CART817, Gram-positive; read-out: MIC
Method: (§2) The minimum inhibitory concentrations (MICs) were determined using a two-fold serial dilution method with MHB following the recommendations of the Clinical and Laboratory Standards Institute (CLSI [2012]; Elshikh et al. [2016]). In brief, serial two-fold dilutions of the samples in DMSO were mixed with MHB in a 96-well microplate. Then, 50 µL of bacteria suspension was added to each well, resulting in a final concentration of 1 × 10^4 colony-forming units/well. The plates were incubated at 35–37 °C for 18–24 hr. After incubation, 10 µL of 0.18% resazurin (Cat. No. R7017, Sigma-Aldrich, USA) was added to each well (Elshikh et al. [2016]). The MIC was assessed within 2–3 hr after the addition of resazurin. All antimicrobial assays were performed in triplicate, using vancomycin (Cat. No. SBR00001, Sigma-Aldrich, USA) and gentamicin (Cat. No. G1397, Sigma-Aldrich, USA) as standard controls.

E. coli = test: as above; type: cell-based; settings: Escherichia coli, Gram-negative
Description: (§3) Methicillin-resistant Staphylococcus aureus (MRSA), methicillin-susceptible S. aureus (MSSA), and Gram-negative clinical isolates of bacteria [Escherichia coli (9637) and Serratia marcescens ATCC 13880] were used for this study. […] MSSA HBP10, MSSA LUU7, MSSA R113, S. aureus ONE9, and MSSA POB2 were isolated in Hawaiʻi (Gerken et al. [2021]). Mueller Hinton Broth (MHB, GTIN:00382902979630, Becton, Dickinson and Company, Franklin Lakes, NJ, USA) and Mueller Hinton Agar (MHA, GTIN:00382902252504, Becton, Dickinson and Company, Franklin Lakes, NJ, USA,) were used for bacterial inoculation. MRSA was a pathogen strain causing hospital-acquired infections in 1982. This strain easily acquires resistance to antibiotics, such as vancomycin. MSSA strains isolated from the Island of Hawaiʻi included: Honolʻii Beach Park (HBP10) carry the genes erm(C), aph(3′)-III, and mecA, which provide resistance to macrolide, aminoglycoside, and beta-lactam antibiotics, respectively; Wailuku River (LUU7) which contains the blaZ gene (beta-lactam resistance) (Gerken et al. [2021]). Richardson’s Beach Park (R113) and Onekahakaha (ONE9) which is known for its virulence factors (hlgA, hlgB, hlgC, lukD, and lukE).
as §2

S. aureus ONE9 = test: as above; type: cell-based; settings: Staphylococcus aureus; S. aureus ONE9, Gram-positive; read-out: MIC
Description: as §3, §2

MSSA LUU7 = test: as above; type: cell-based; settings: Staphylococcus aureus; MSSA LUU7, Gram-positive; read-out: MIC
Description: as §3, §2

MRSA USA300 = test: as above; type: cell-based; settings: Staphylococcus aureus; MRSA USA300, Gram-positive; read-out: MIC
Description: as §3, §2

S. aureus 8325-4 = test: as above; type: cell-based; settings: Staphylococcus aureus, 83254; S. aureus 8325-4, Gram-positive; read-out: MIC
Description: as §3, §2

MSSA R113 = test: as above; type: cell-based; settings: Staphylococcus aureus; MSSA R113, Gram-positive; read-out: MIC
Description: as §3, §2

[2] = system: LPS-induced nitric oxide (NO) production in RAW 264.7 cells; test: Inhibition of NO generation in LPS-induced RAW 264.7 cells (Griess); type: cell-based, murine; settings: for IC50: Mus musculus
Method: The nitrite concentration in the culture medium was measured to indicate nitric oxide (NO) production as previously described (Min et al. [2009]). The murine macrophage RAW 264.7 cell line was obtained from ATCC, Manassas, VA, USA, and maintained in Dulbecco’s modified Eagle’s medium supplemented with 10% heat-inactivated FBS (Cat. No. A5670801, Gibco BRL Co, Grand Island, NY, USA), penicillin G (100 units/mL) (Cat. No. P7794, Sigma-Aldrich, USA), streptomycin (100 µg/mL) (Cat. No. S9137, Sigma-Aldrich, USA), and L-glutamine (2 mM) (Cat. No. 25030081, Gibco BRL Co, Grand Island, NY, USA). In brief, RAW 264.7 cells were seeded at a density of 4 × 10^4 cells/well in phenol red-free media (Cat. No. 11835030, Gibco, USA) in a 96-well plate, and incubated in a humidified incubator with 5% CO2 at 37 °C for 24 hr. […] The concentration of nitric oxide production was assessed using the Griess reagent, which consists of a 1:1 (v/v) mixture of 1% sulfanilamide (Cat No. A13001, Alfa Aesar, Massachusetts, USA) in H3PO4 and N-(1-naphthyl)ethylenediamine dihydrochloride (Cat. No. 102397, MP Biomedicals, USA). Absorbance was recorded with a microplate reader (SynergyMx, BioTeK, Winooski, VT, USA) at 540 nm. A standard curve was created using sodium nitrite (1–100 μM) (Cat. No. 44227, Alfa Aesar, Massachusetts, USA). A sulforhodamine B (SRB) assay was employed to assess the cellular viability of the samples with RAW 264.7 cells under a similar experimental setup. The final % inhibition of NO production was adjusted based on cell viability.

[3] = SRB cytotoxicity assay, NIH/3T3 cells; type: cell-based, murine; settings: mouse, NIH/3T3 fibroblasts (non-tumorigenic)
Description: as §1

Nc1ccn([C@H]2C[C@H](O)[C@@H](CO)O2)c(=O)n1 [Compound 1, deoxycytidine]
cytotoxic response against A549 cells (in words) ([1]; SRB assay, 72 h, highest concentration tested 100 µg/ml): no cytotoxic response | MIC (S. aureus CART817): 128 µg/mL (≈ 563 µM) | MIC (E. coli): 128 µg/mL (≈ 563 µM) | MIC (S. aureus ONE9): 128 µg/mL (≈ 563 µM) | MIC (MSSA LUU7): 128 µg/mL (≈ 563 µM) | MIC (MRSA USA300): 128 µg/mL (≈ 563 µM) | MIC (S. aureus 8325-4): 128 µg/mL (≈ 563 µM) | MIC (MSSA R113): 128 µg/mL (≈ 563 µM) | NO inhibitory activity (in words) ([2]; RAW 264.7 cells, LPS-induced, highest concentration 50 μg/mL): no significant NO inhibitory activity

CC(C)CCC[C@@H](C)[C@H]1CC[C@H]2[C@@H]3CC=C4C[C@@H](O)CC[C@]4(C)[C@H]3CC[C@]12C [Compound 9, cholesterol]
Selectivity Index (SI) [1]: 1.03 | IC50 [1]: 176 ± 5.3 µM | MIC (S. aureus CART817): 128 µg/mL (≈ 331 µM) | IC50 at 72 h [3]: 181 ± 8.04 µM | MIC (E. coli): 128 µg/mL (≈ 331 µM) | MIC (S. aureus ONE9): 128 µg/mL (≈ 331 µM) | MIC (MSSA LUU7): 128 µg/mL (≈ 331 µM) | MIC (MRSA USA300): 128 µg/mL (≈ 331 µM) | MIC (S. aureus 8325-4): 128 µg/mL (≈ 331 µM) | MIC (MSSA R113): 128 µg/mL (≈ 331 µM) | IC50 ([2]; RAW264.7, RAW 264.7 cells, LPS 1 μg/mL, adjusted for cell viability, read-out: IC50, inhibition of LPS-induced NO production): 50.2 ± 2.2 µM | inhibition of NO production at 5 µg/ml (in words) ([2]; RAW 264.7 cells, LPS-induced): significant (p > 0.001) inhibition

CC(C)CCC[C@@H](C)[C@H]1CCC2[C@@]34C=C[C@]5(C[C@@H](O)CC[C@]5(C)C3CC[C@@]21C)OO4 (stereo partly shown) [Compound 10, 7-dehydrochoresterol peroxide]
Selectivity Index (SI) [1]: 1.12 | IC50 [1]: 86.1 µM | MIC (S. aureus CART817): 128 µg/mL (≈ 307 µM) | IC50 at 72 h [3]: 96.6 ± 4.34 µM | MIC (E. coli): 128 µg/mL (≈ 307 µM) | MIC (S. aureus ONE9): 128 µg/mL (≈ 307 µM) | MIC (MSSA LUU7): 128 µg/mL (≈ 307 µM) | MIC (MRSA USA300): 128 µg/mL (≈ 307 µM) | MIC (S. aureus 8325-4): 128 µg/mL (≈ 307 µM) | MIC (MSSA R113): 128 µg/mL (≈ 307 µM) | IC50 ([2]; RAW264.7, read-out: IC50, inhibition of LPS-induced NO production): 53.6 ± 2.3 µM | inhibition of NO production at 5 µg/ml (in words) ([2]; RAW 264.7 cells, LPS-induced): significant (p > 0.001) inhibition

CC(C)CCC[C@@H](C)[C@H]1CCC2[C@]1(C)CC=C1[C@]23C=C[C@]2(C[C@@H](O)CC[C@]12C)OO3 (stereo partly drawn) [Compound 11, (3β-5α-8α)5,8-epidioxycholesta-6,9(1)-diene-3-ol]
Selectivity Index (SI) [1]: 1.05 | IC50 [1]: 137 ± 4.4 µM | MIC (S. aureus CART817): 128 µg/mL (≈ 309 µM) | IC50 at 72 h [3]: 144 ± 6.15 µM | MIC (E. coli): 128 µg/mL (≈ 309 µM) | MIC (S. aureus ONE9): 128 µg/mL (≈ 309 µM) | MIC (MSSA LUU7): 128 µg/mL (≈ 309 µM) | MIC (MRSA USA300): 128 µg/mL (≈ 309 µM) | MIC (S. aureus 8325-4): 128 µg/mL (≈ 309 µM) | MIC (MSSA R113): 128 µg/mL (≈ 309 µM)
